Where “and” joins values, the source holds several entries; their conditions need not be identical. Identical values can stand only once. Toxic doses and inconclusive results are not listed.
System: BDF1 mice, P388 leukemia ip, median survival T/C
Assay: NCI In Vivo Anticancer Drug Screen. Data for tumor model P388 Leukemia (intraperitoneal) in B6D2F1 (BDF1) mice
Conditions: endpoint: median survival time, higher = longer survival
In short: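 Compound-treated tumour-bearing mice were compared with vehicle-treated controls. Survival was recorded, and the value is the treated-group measurement divided by the control-group measurement (T/C).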

[1] = dose: 50.0 mg/kg/injection, schedule: Q01DX009 (ip), vehicle: saline
[2] = dose: 25.0 mg/kg/injection, schedule: Q01DX009 (ip), vehicle: saline with Tween-80
[3] = dose: 25.0 mg/kg/injection, schedule: Q04DX003 (ip), vehicle: saline with Tween-80
[4] = dose: 50.0 mg/kg/injection, schedule: Q01DX009 (ip), vehicle: saline with Tween-80
[5] = dose: 50.0 mg/kg/injection, schedule: Q04DX003 (ip), vehicle: saline with Tween-80
[6] = dose: 100.0 mg/kg/injection, schedule: Q01DX009 (ip), vehicle: saline with Tween-80
[7] = dose: 100.0 mg/kg/injection, schedule: Q04DX003 (ip), vehicle: saline with Tween-80
[8] = dose: 200.0 mg/kg/injection, schedule: Q01DX009 (ip), vehicle: saline with Tween-80
[9] = dose: 12.5 mg/kg/injection, schedule: Q01DX009 (ip), vehicle: saline with Tween-80
[10] = dose: 200.0 mg/kg/injection, schedule: Q04DX003 (ip), vehicle: saline with Tween-80
[11] = dose: 400.0 mg/kg/injection, schedule: Q04DX003 (ip), vehicle: saline with Tween-80
[12] = dose: 100.0 mg/kg/injection, schedule: Q01DX009 (ip), vehicle: Klucel (hydroxypropylcellulose) (HPC)
[13] = dose: 100.0 mg/kg/injection, schedule: Q04DX003 (ip), vehicle: Klucel (hydroxypropylcellulose) (HPC)
[14] = dose: 200.0 mg/kg/injection, schedule: Q01DX009 (ip), vehicle: Klucel (hydroxypropylcellulose) (HPC)
[15] = dose: 200.0 mg/kg/injection, schedule: Q04DX003 (ip), vehicle: Klucel (hydroxypropylcellulose) (HPC)

With `CCCCn1cnc2c(SC)ncnc21` the T/C (dose: 22.0 mg/kg/injection, schedule: Q04DX003 (ip), vehicle: saline) was 100 % of control, the T/C (dose: 33.0 mg/kg/injection, schedule: Q04DX003 (ip), vehicle: saline) was 104 % of control and the T/C [1] was 95 % of control. For the same molecule, the T/C (dose: 50.0 mg/kg/injection, schedule: Q04DX003 (ip), vehicle: saline) was 104 % of control, the T/C (dose: 75.0 mg/kg/injection, schedule: Q04DX003 (ip), vehicle: saline) was 113 % of control and the T/C (dose: 100.0 mg/kg/injection, schedule: Q01DX009 (ip), vehicle: saline) was 100 % of control. The T/C (dose: 100.0 mg/kg/injection, schedule: Q04DX003 (ip), vehicle: saline) was 104 % of control, the T/C (dose: 200.0 mg/kg/injection, schedule: Q01DX009 (ip), vehicle: saline) was 104 % of control and the T/C (dose: 200.0 mg/kg/injection, schedule: Q04DX003 (ip), vehicle: saline) was 90 % of control.

`CC1(C)N=C(N)N=C(N)N1c1ccc(C(N)=O)cc1` was tested, and the T/C (dose: 50.0 mg/kg/injection, schedule: Q01DX005 (ip), vehicle: Klucel (hydroxypropylcellulose) (HPC)) was 109 % of control and the T/C (dose: 100.0 mg/kg/injection, schedule: Q01DX005 (ip), vehicle: Klucel (hydroxypropylcellulose) (HPC)) was 112 % of control.

In the case of `CCCNC1(C(N)=O)CCN(Cc2ccccc2)CC1`, the T/C [2] is reported as 107 % of control, the T/C [3] is reported as 104 % of control and the T/C [4] is reported as 111 % of control. For the same molecule, the T/C [5] was 86 % of control, the T/C [6] was 96 % of control and the T/C [7] was 95 % of control.

In the case of `CCC[CH2][Sn-]([CH2]CCC)([CH2]CCC)[O]c1cc(Cl)c(Cl)cc1Cl`, the T/C (dose: 0.37 mg/kg/injection, schedule: Q01DX009 (ip), vehicle: Klucel (hydroxypropylcellulose) (HPC)) is reported as 100 % of control, the T/C (dose: 0.75 mg/kg/injection, schedule: Q01DX009 (ip), vehicle: Klucel (hydroxypropylcellulose) (HPC)) is reported as 100 % of control and the T/C (dose: 1.5 mg/kg/injection, schedule: Q01DX009 (ip), vehicle: Klucel (hydroxypropylcellulose) (HPC)) is reported as 100 % of control. The T/C (dose: 3.0 mg/kg/injection, schedule: Q01DX009 (ip), vehicle: Klucel (hydroxypropylcellulose) (HPC)) was 110 % of control and the T/C (dose: 6.0 mg/kg/injection, schedule: Q01DX009 (ip), vehicle: Klucel (hydroxypropylcellulose) (HPC)) was 89 % of control.

`CC(=O)c1ccc(C(=O)CC(O)(C(F)(F)F)C(F)(F)F)cc1` was tested, and the T/C (dose: 50.0 mg/kg/injection, schedule: Q01DX009 (ip), vehicle: other) was 104 % of control, the T/C (dose: 50.0 mg/kg/injection, schedule: Q04DX003 (ip), vehicle: other) was 90 % of control and the T/C (dose: 100.0 mg/kg/injection, schedule: Q01DX009 (ip), vehicle: other) was 104 % of control. The T/C (dose: 100.0 mg/kg/injection, schedule: Q04DX003 (ip), vehicle: other) was 95 % of control.

`Cc1cn(C)c2nccnc12` was tested, and the T/C (dose: 12.5 mg/kg/injection, schedule: Q01DX009 (ip), vehicle: water) was 100 % of control, the T/C (dose: 12.5 mg/kg/injection, schedule: Q04DX003 (ip), vehicle: water) was 102 % of control and the T/C (dose: 25.0 mg/kg/injection, schedule: Q01DX009 (ip), vehicle: water) was 107 % of control. The T/C (dose: 25.0 mg/kg/injection, schedule: Q04DX003 (ip), vehicle: water) was 96 % of control, the T/C (dose: 50.0 mg/kg/injection, schedule: Q01DX009 (ip), vehicle: water) was 98 % of control and the T/C (dose: 50.0 mg/kg/injection, schedule: Q04DX003 (ip), vehicle: water) was 112 % of control. For the same molecule, the T/C (dose: 100.0 mg/kg/injection, schedule: Q01DX009 (ip), vehicle: water) was 100 % of control, the T/C (dose: 100.0 mg/kg/injection, schedule: Q04DX003 (ip), vehicle: water) was 117 % of control and the T/C (dose: 200.0 mg/kg/injection, schedule: Q01DX009 (ip), vehicle: water) was 104 % of control. For the same molecule, the T/C (dose: 200.0 mg/kg/injection, schedule: Q04DX003 (ip), vehicle: water) was 98 % of control and the T/C (dose: 300.0 mg/kg/injection, schedule: Q04DX003 (ip), vehicle: water) was 94 % of control.

`CCCCCCCCCCCC(=O)CC(SCC)c1ccccc1` (stereo not given) was tested, and the T/C [4] was 96 % of control, the T/C [6] was 87 % of control and the T/C [8] was 89 % of control.

`CCC[As](=O)(O)CCC` was tested, and the T/C (dose: 12.5 mg/kg/injection, schedule: Q01DX009 (ip), vehicle: saline) was 115 % of control, the T/C (dose: 25.0 mg/kg/injection, schedule: Q01DX009 (ip), vehicle: saline) was 110 % of control and the T/C (dose: 33.0 mg/kg/injection, schedule: Q01DX009 (ip), vehicle: saline) was 100 % of control. The T/C (dose: 75.0 mg/kg/injection, schedule: Q01DX009 (ip), vehicle: saline) was 120 % of control.

In the case of `COc1cc(C=Nc2cc(Cl)c(Cl)c(Cl)c2)ccc1N(CCCl)CCCl`, the T/C (dose: 1.8 mg/kg/injection, schedule: Q01DX009 (ip), vehicle: Klucel (hydroxypropylcellulose) (HPC)) is reported as 150 % of control, the T/C (dose: 2.7 mg/kg/injection, schedule: Q01DX009 (ip), vehicle: Klucel (hydroxypropylcellulose) (HPC)) is reported as 158 % of control and the T/C (dose: 3.12 mg/kg/injection, schedule: Q01DX009 (ip), vehicle: Klucel (hydroxypropylcellulose) (HPC)) is reported as 195 % of control. The T/C (dose: 4.1 mg/kg/injection, schedule: Q01DX009 (ip), vehicle: Klucel (hydroxypropylcellulose) (HPC)) was 237 % of control and 163 % of control, the T/C (dose: 6.25 mg/kg/injection, schedule: Q01DX009 (ip), vehicle: Klucel (hydroxypropylcellulose) (HPC)) was 227 % of control and 240 % of control and 208 % of control and the T/C (dose: 9.3 mg/kg/injection, schedule: Q01DX009 (ip), vehicle: Klucel (hydroxypropylcellulose) (HPC)) was 254 % of control and 150 % of control. For the same molecule, the T/C (dose: 12.5 mg/kg/injection, schedule: Q01DX009 (ip), vehicle: Klucel (hydroxypropylcellulose) (HPC)) was 204 % of control, the T/C (dose: 25.0 mg/kg/injection, schedule: Q01DX009 (ip), vehicle: Klucel (hydroxypropylcellulose) (HPC)) was 120 % of control and the T/C (dose: 30.0 mg/kg/injection, schedule: Q04DX003 (ip), vehicle: Klucel (hydroxypropylcellulose) (HPC)) was 186 % of control. The T/C (dose: 45.0 mg/kg/injection, schedule: Q04DX003 (ip), vehicle: Klucel (hydroxypropylcellulose) (HPC)) was 272 % of control.

`CC1CCCCC1(O)CSc1ccccc1` (stereo not given) was tested, and the T/C [9] was 100 % of control and 106 % of control, the T/C [2] was 102 % of control and 116 % of control and the T/C [4] was 103 % of control and 113 % of control. The T/C [6] was 116 % of control (2×) and 124 % of control and the T/C [8] was 101 % of control.

For `CCOC(=O)c1c(N)[nH]c(SSc2[nH]c(N)c(C(=O)OCC)c2C(=O)OCC)c1C(=O)OCC`, the T/C [2] was 92 % of control, the T/C [4] was 108 % of control and the T/C [5] was 109 % of control. For the same molecule, the T/C [7] was 109 % of control, the T/C [10] was 114 % of control and the T/C [11] was 109 % of control.

With `CCOC(=O)c1c[nH]c(=S)n1C` the T/C [12] was 95 % of control, the T/C [13] was 95 % of control and the T/C [14] was 104 % of control. The T/C [15] was 91 % of control.

In the case of `NNc1ncnc2c1ccn2C1OC(CO)C(O)C1O` (stereo not given), the T/C [2] is reported as 150 % of control, the T/C [3] is reported as 104 % of control and the T/C (dose: 37.5 mg/kg/injection, schedule: Q01DX009 (ip), vehicle: saline with Tween-80) is reported as 155 % of control. For the same molecule, the T/C [4] was 100 % of control, the T/C [5] was 108 % of control and the T/C [7] was 108 % of control.

In the case of `ClC(Cl)(Cl)SSC(=Nc1ccccc1)SSC(Cl)(Cl)Cl`, the T/C [4] is reported as 106 % of control and the T/C [6] is reported as 117 % of control.

With `O=C(/C=C/c1cccc2ccccc12)c1ccc(Cl)cc1` the T/C [12] was 109 % of control, the T/C [13] was 104 % of control and the T/C [14] was 95 % of control. For the same molecule, the T/C [15] was 104 % of control and the T/C (dose: 400.0 mg/kg/injection, schedule: Q04DX003 (ip), vehicle: Klucel (hydroxypropylcellulose) (HPC)) was 95 % of control.

In the case of `N/C(=N/N=C/c1ccncc1)N[N+](=O)[O-]`, the T/C [1] is reported as 90 % of control.

`Cc1ccc(C(=O)NCCCOc2ccc([N+](=O)[O-])cc2Cl)cc1S(=O)(=O)F` was tested, and the T/C [4] was 98 % of control, the T/C [6] was 114 % of control and the T/C [7] was 99 % of control. For the same molecule, the T/C [8] was 98 % of control, the T/C [10] was 99 % of control and the T/C (dose: 400.0 mg/kg/injection, schedule: Q01DX009 (ip), vehicle: saline with Tween-80) was 107 % of control. The T/C [11] was 90 % of control.

With `O=C1c2sccc2-c2cccc3cccc1c23` the T/C [5] was 96 % of control, the T/C [7] was 93 % of control and the T/C [10] was 94 % of control. For the same molecule, the T/C [11] was 86 % of control.

With `CCCCCCCCOc1cc(OC(C)=O)c2c(ccc3ccccc32)c1` the T/C [7] was 88 % of control, the T/C [10] was 87 % of control and the T/C [11] was 88 % of control.

`O=C1N/C(=N\c2nc3ccccc3s2)c2ccccc21` was tested, and the T/C (dose: 3.13 mg/kg/injection, schedule: Q01DX009 (ip), vehicle: saline with Tween-80) was 90 % of control, the T/C (dose: 6.25 mg/kg/injection, schedule: Q01DX009 (ip), vehicle: saline with Tween-80) was 92 % of control and the T/C [9] was 92 % of control.

From PubChem BioAssay AID328 (DTP/NCI, 2004)
